From patent publication US10858365B2, “Triazolo-pyrimidine compounds and uses thereof” (Dizal (Jiangsu) Pharmaceutical Co., Ltd., priority 2018, dated 2020) come the findings set out here.

Common to all, as to format: cell-based
One assay concerns the target hA2a (Homo sapiens (Human), UniProt P29274). As to the kind of experiment: cAMP inhibition assay in hA2a/CHO cells. The conditions noted are these: adenosine stimulation, read-out: cAMP & FLIPR IC50 (nM) hA2a. On the procedure: (§1) hA2a/CHO, hA2b/CHO and mA2a/CHO (Genscript) were plated at 5×10^3 cells/well into 384-well polystyrene plates at the day of experiment. Compounds were pre-incubated with cells for 30 min at 37° C., 5% CO2. Then […] adenosine was added to the cells and incubated for 30 min at 37° C., 5% CO2. Detection reagent (CISBIO) was added and the plates were incubated for 60 min at room temperature. The signal was captured by Envision.
FLIPR™ and cAMP inhibition activities of exemplary compounds in different adenosine receptor over-expressing cell lines are shown in Table 4 below.

For a further assay, the target named is hA1 (Homo sapiens (Human), UniProt P30542). As to the kind of experiment: FLIPR inhibition assay in hADORA1/CHO (hA1 expressing) cells. The note with it: hADORA1/CHO cells, FLIPR calcium, adenosine stimulation; read-out: cAMP & FLIPR IC50 (nM) hA1. The protocol:
hADORA1/CHO (hA1 expressing) cells (Genscript) were plated at 1×10^4 cells/well into 384-well polystyrene plates one day before starting the experiment. On the day of experiment, the supernatant was discard and replaced with 40 µL of dye (FLIPR calcium 5 Assay Kit) per well and the plates were incubated for 60 mins at 37° C. plus 5% CO2. Then testing compounds were added at different concentrations for FLIPR™ inhibition assay. After a 400 s incubation with compound, […] adenosine was added into the cells, and the signal was captured by FLIPR.

The target in another assay is hA2b (Homo sapiens (Human), UniProt P29275). The experiment in a line: cAMP inhibition assay in hA2b/CHO cells. The note with it: adenosine stimulation, read-out: cAMP & FLIPR IC50 (nM) hA2b. On the procedure:
as §1

Another assay deals with mA2a (Mus musculus (Mouse), UniProt Q60613). As to the kind of experiment: cAMP inhibition assay in mA2a/CHO cells. The note with it: adenosine stimulation, read-out: cAMP & FLIPR IC50 (nM) mA2a. The protocol: as §1
Sequence of mA2a (Q60613 whole entry): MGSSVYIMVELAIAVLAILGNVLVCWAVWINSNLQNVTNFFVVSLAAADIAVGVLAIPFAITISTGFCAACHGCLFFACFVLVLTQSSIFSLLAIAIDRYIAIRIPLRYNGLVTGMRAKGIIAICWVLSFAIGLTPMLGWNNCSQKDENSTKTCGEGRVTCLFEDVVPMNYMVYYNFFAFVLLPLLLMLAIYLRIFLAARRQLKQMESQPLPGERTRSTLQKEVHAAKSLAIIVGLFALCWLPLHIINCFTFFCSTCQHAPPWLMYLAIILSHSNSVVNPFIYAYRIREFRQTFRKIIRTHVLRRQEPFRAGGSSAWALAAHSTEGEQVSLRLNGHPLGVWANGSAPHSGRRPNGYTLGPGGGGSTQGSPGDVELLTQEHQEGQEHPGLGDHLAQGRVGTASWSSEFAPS

Sequence of hA1 (P30542 whole entry): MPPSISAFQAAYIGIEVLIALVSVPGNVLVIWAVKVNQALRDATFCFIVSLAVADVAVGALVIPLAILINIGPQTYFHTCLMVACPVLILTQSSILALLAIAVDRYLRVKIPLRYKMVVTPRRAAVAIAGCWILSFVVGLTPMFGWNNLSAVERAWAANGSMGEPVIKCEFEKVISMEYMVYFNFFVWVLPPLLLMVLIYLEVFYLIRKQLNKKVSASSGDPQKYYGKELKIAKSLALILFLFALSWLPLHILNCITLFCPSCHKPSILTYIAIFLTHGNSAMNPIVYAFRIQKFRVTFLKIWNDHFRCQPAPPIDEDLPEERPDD
Sequence of hA2a (P29274 whole entry): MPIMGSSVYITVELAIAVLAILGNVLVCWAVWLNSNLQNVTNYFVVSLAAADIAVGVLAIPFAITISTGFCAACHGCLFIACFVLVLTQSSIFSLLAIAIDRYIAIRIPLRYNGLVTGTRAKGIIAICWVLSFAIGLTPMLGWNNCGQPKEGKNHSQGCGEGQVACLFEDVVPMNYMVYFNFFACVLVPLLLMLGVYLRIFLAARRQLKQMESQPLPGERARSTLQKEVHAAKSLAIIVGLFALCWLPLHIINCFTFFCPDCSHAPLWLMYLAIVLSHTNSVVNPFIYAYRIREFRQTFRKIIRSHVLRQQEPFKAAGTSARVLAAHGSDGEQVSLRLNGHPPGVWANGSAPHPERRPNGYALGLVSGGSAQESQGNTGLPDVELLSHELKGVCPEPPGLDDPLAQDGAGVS
Sequence of hA2b (P29275 whole entry): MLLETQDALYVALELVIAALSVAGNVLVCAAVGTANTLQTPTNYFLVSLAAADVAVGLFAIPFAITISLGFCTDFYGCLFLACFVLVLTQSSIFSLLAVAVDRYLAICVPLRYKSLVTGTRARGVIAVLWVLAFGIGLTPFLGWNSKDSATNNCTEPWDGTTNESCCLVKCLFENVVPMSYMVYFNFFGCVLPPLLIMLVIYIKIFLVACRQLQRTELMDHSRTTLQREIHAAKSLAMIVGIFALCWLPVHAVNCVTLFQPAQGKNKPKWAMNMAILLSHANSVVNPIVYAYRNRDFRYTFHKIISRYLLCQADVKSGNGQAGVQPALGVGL

`Cc1cnc2ccc(-c3c(-c4ncco4)nc(N)n4nc(CC5CCCO5)nc34)cn12` (single isomer, unassigned) [Example 106-1, 8-(3-methylimidazo[1,2-a]pyridin-6-yl)-7-(oxazol-2-yl)-2-((tetrahydrofuran-2-yl)methyl)-[1,2,4]triazolo[1,5-f]pyrimidin-5-amine]: the IC50 – broadly, the concentration that inhibits the measured activity by half – on hA2a turned out to be 0.5 nM; at hA1, 53.2 nM.
In the case of `Cc1cnc2ccc(-c3c(-c4ncco4)nc(N)n4nc(CC5CCCO5)nc34)cn12` (single isomer, unassigned) [Example 106-2, 8-(3-methylimidazo[1,2-a]pyridin-6-yl)-7-(oxazol-2-yl)-2-((tetrahydrofuran-2-yl)methyl)-[1,2,4]triazolo[1,5-f]pyrimidin-5-amine], the figures for the IC50 on hA2a and on hA1 were 0.2 nM and 34.9 nM, respectively.
Take `Cc1cnc2ccc(-c3c(-c4ncco4)nc(N)n4nc(CC5CCOC5)nc34)cn12` (single isomer, unassigned) [Example 107-1, 8-(3-methylimidazo[1,2-a]pyridin-6-yl)-7-(oxazol-2-yl)-2-((tetrahydrofuran-3-yl)methyl)-[1,2,4]triazolo[1,5-f]pyrimidin-5-amine]: the IC50 worked out at 0.5 nM on hA2a, 416 nM on hA2b, 32.7 nM on mA2a and 54.6 nM on hA1.
The like results for `Cc1cnc2ccc(-c3c(-c4ncco4)nc(N)n4nc(CC5CCOC5)nc34)cn12` (single isomer, unassigned) [Example 107-2, 8-(3-methylimidazo[1,2-a]pyridin-6-yl)-7-(oxazol-2-yl)-2-((tetrahydrofuran-3-yl)methyl)-[1,2,4]triazolo[1,5-f]pyrimidin-5-amine] were, in that order, 0.5 nM, 473 nM, 27.7 nM and 34.5 nM.
Taken in the same sequence, the figures for `Cc1cnc2ccc(-c3c(-c4ccc(F)cc4)nc(N)n4nc(CC5CCOC5)nc34)cn12` (single isomer, unassigned; isomer 1) [Example 105-1, 7-(4-fluorophenyl)-8-(3-methylimidazo[1,2-a]pyridin-6-yl)-2-((tetrahydrofuran-3-yl)methyl)-[l,2, 4]triazolo[1,5-c]pyrimidin-5-amine(isomer 1)] were 0.1 nM, 47.5 nM, 1 nM and 14 nM.
As to `Cc1cnc2ccc(-c3c(N4CCOC(C)C4)nc(N)n4nc(Cc5ncccc5F)nc34)cn12` (single isomer, unassigned; isomer 1) [Example 112-1, 2-((3-fluoropyridin-2-yl)methyl)-8-(3-methylimidazo[l,2-a]pyridin-6-yl)-7-(2-methylmorpholino)-[1,2,4]triazolo[1,5-c]pyrimidin-5-amine (isomer 1)], the figures for the IC50 on hA2a and on hA1 were 91.6 nM and 966 nM, respectively.
The like results for `Cc1cnc2ccc(-c3c(N4CCOC[C@@H]4C)nc(N)n4nc(Cc5ncccc5F)nc34)cn12` (single isomer, unassigned; isomer 1) [Example 113-1, 2-((3-fluoropyridin-2-yl)methyl)-8-(3-methylimidazo[l,2-a]pyridin-6-yl)-7-(3-methylmorpholino)-[1,2,4]triazolo[1,5-c]pyrimidin-5-amine (isomer 1)] were, in that order, 42.4 nM and 3270 nM.
Turning to `Cc1cnc2ccc(-c3c(-c4ccc(F)cc4)nc(N)n4nc(CC5CCOC5)nc34)cn12` (single isomer, unassigned; isomer 2) [Example 105-2, 7-(4-fluorophenyl)-8-(3-methylimidazo[l,2-a]pyridin-6-yl)-2-((tetrahydrofuran-3-yl)methyl)-[1,2, 4]triazolo[1,5-c]pyrimidin-5-amine(isomer 2)], the half-inhibitory concentration (IC50) on hA2b is 71.6 nM; on hA1, 11.8 nM.
For `Cc1cnc2ccc(-c3c(N4CCOC(C)C4)nc(N)n4nc(Cc5ncccc5F)nc34)cn12` (single isomer, unassigned; isomer 2) [Example 112-2, 2-((3-fluoropyridin-2-yl)methyl)-8-(3-methylimidazo[l,2-a]pyridin-6-yl)-7-(2-methylmorpholino)-[1,2,4]triazolo[1,5-c]pyrimidin-5-amine (isomer 2)], the IC50 on hA2a is 3.2 nM; at hA1, 120 nM.
Regarding `Cc1cnc2ccc(-c3c(N4CCOCC4C)nc(N)n4nc(Cc5ncccc5F)nc34)cn12` (single isomer, unassigned; isomer 2) [Example 113-2, 2-((3-fluoropyridin-2-yl)methyl)-8-(3-methylimidazo[1,2-a]pyridin-6-yl)-7-(3-methylmorpholino)-[1,2,4]triazolo[1,5-c]pyrimidin-5-amine (isomer 2)], the IC50 at hA2a was 73 nM; on hA1, above 10000 nM.
In the case of `COc1cc(-c2c(-c3ccc(F)cc3)nc(N)n3nc(Cc4c(F)cccc4F)nc23)ccn1` [Example 5, 2-(2,6-difluorobenzyl)-7-(4-fluorophenyl)-8-(2-methoxypyridin-4-yl)-[1,2,4]lriazolo[1,5-c] pyrimidin-5-amine], the IC50 on hA2a is 1.9 nM; on mA2a, 1.5 nM.
Regarding `Cn1cc(-c2c(-c3ncco3)nc(N)n3nc(Cc4ncccc4OC(F)F)nc23)ccc1=O` [Example 71, 5-(5-amino-2-[[3-(difluoromethoxy)pyridin-2-yl]methyl]-7-(1,3-oxazol-2-yl)-[1,2,4]triazolo[1,5-c]pyrimidin-8-yl)-1-methyl-1,2-dihydropyridin-2-one], the IC50 was 11 nM at hA2a, 102 nM on hA2b and 8.9 nM on hA1.
On to `CN1CCC[C@H]1Cc1nc2c(-c3ccc4ncn(C)c4c3)c(-c3ccc(F)cc3)nc(N)n2n1` [Example 103, (S)-7-(4-fluorophenyl)-8-(1-methyl-1H-benzo[d]imidazol-6-yl)-2-((1-methylpyrrolidin-2-yl)methyl)-[1,2,4]triazolo[1,5-c]pyrimidin-5-amine], for which the IC50 stood at 8.3 nM on hA2a, 30.3 nM on mA2a and 264 nM at hA1.
For `CN1CCC[C@@H]1Cc1nc2c(-c3ccc4ncn(C)c4c3)c(-c3ccc(F)cc3)nc(N)n2n1` [Example 104, (R)-7-(4-fluorophenyl)-8-(1-methyl-1H-benzo[d]imidazol-6-yl)-2-((1-methylpyrrolidin-2-yl)methyl)-[1,2,4]triazolo[1,5-c]pyrimidin-5-amine], the IC50 amounted to 1 nM on hA2a, 5.7 nM at mA2a and 34.1 nM at hA1.
Take `Cc1cnc2ccc(-c3c(N4CCN(C)CC4)nc(N)n4nc(Cc5c(F)cccc5F)nc34)cn12` [Example 108, 2-(2,6-difluorobenzyl)-8-(3-methylimidazo[1,2-a]pyridin-6-yl)-7-{4-methylpiperazin-l-yl)-[1,2,4] triazolo[1,5-c]pyrimidin-5-amine]: the IC50 on hA2a was 42.3 nM; on hA1, 131 nM.
Taken in the same sequence, the figures for `COC1CN(c2nc(N)n3nc(Cc4c(F)cccc4F)nc3c2-c2ccc3ncc(C)n3c2)C1` [Example 109, 2-(2,6-difluorobenzyl)-7-(3-methoxyazetidin-l-yl)-8-(3-methylimidazo[l,2-a]pyridin-6-yl)-[l,2,4] triazolo[1,5-c]pyrimidin-5-amine] were 3.5 nM and 30.6 nM.
The like results for `Cc1cnc2ccc(-c3c(N4CC5(COC5)C4)nc(N)n4nc(Cc5ncccc5F)nc34)cn12` [Example 118, 2-((3-fluoropyridin-2-yl)methyl)-8-(3-methylimidazo[l,2-a]pyridin-6-yl)-7-(2-oxa-6-azaspiro[3.3)heptan-6-yl)-[l,2,4]triazolo[l,5-c]pyrimidin-5-a mine] were, in that order, 228 nM and above 8090 nM.
Taken in the same sequence, the figures for `Cc1cnc2ccc(-c3c(N4CCC4)nc(N)n4nc(Cc5ncccc5F)nc34)cn12` [Example 119, 7-(azetidin-l-yl)-2-((3-fluoropyridin-2-yl)methyl)-8-(3-methylimidazo[1,2-a]pyridin-6-yl)-[1,2,4] triazolo[1,5-c]pyrimidin-5-amine] were 1.9 nM and 48.6 nM.
Take `Cc1cnc2ccc(-c3c(-c4ccc(F)cc4)nc(N)n4nc(C[C@H]5CCCN5C)nc34)cn12` [Example 125, (R)-7-(4-fluorophenyl)-8-(3-methylimidazo[l,2-a]pyrdin-6-yl)-2-((1-methylpyrrolidin-2-yl)methyl)-[l,2,4]triazolo[l,5-c]pyrimidin-5-amine]: the half-inhibitory concentration (IC50) was 0.4 nM on hA2a and 34.1 nM on hA1.
Taken in the same sequence, the figures for `COCCc1nc2c(-c3ccc4ncc(C)n4c3)c(-c3ncco3)nc(N)n2n1` [Example 126, 2-(2-methoxyethyl)-8-(3-methylimidazo[l,2-a]pyridin-6-yl)-7-(oxazol-2-yl)-[1,2,4]triazolo[1,5-c]pyrimidin-5-amine] were 1.1 nM and 83.6 nM.
